# Patent publication US12433964B2, “Antiviral and antibacterial disinfection aero-solution using edible food dyes” (Purdue Research Foundation, priority 2020, dated 2025)
# Assay: Lifetime (photobleaching) of photosensitizers by fluorescent emission monitoring
# Type: physicochemical
# Conditions: for complete photobleaching after (lifetime): 5 μM aqueous solution, green laser 532 nm 6.3 mW cm^−2 / white LED 2400 lux; for lasting time of singlet oxygen generation: estimated for standard illumination level of 500 lux
# Method: To test the lifetime of photosensitizers, we monitored the fluorescent emission of Rose Bengal and Erythrosine, respectively. FIG. 10a is a graph of normalized intensity vs wavelength showing absorption and fluorescence for Rose Bengal and Erythrosine. 0.5-mL aqueous solutions of each photosensitizer were put into a cuvette and then the fluorescent spectrum was measured using a fiber bundle-coupled spectrometer (VS140 VIS-NIR; Horiba Jobin Yvon Inc., Edison, NJ, USA). […] Lifetime of Rose Bengal is longer than that of Erythrosine, showing complete photobleaching after 120 min (60 min for Erythrosine). Both are also activated by a white LED with 2400 lux. Considering that the standard illumination level of normal workstation spaces is 500 lux, the lasting time of singlet oxygen generation for Rose Bengal and Erythrosine can be estimated to be about 9.6 and 4.8 hours, respectively.
Compound,complete photobleaching after (lifetime),lasting time of singlet oxygen generation
Erythrosine [FD&C RED No. 3],60 min,~4.8 h
"O=C([O-])c1c(Cl)c(Cl)c(Cl)c(Cl)c1-c1c2cc(I)c(=O)c(I)c-2oc2c(I)c([O-])c(I)cc12.[Na+].[Na+] [FD&C RED No. 105, Rose Bengal]",120 min,about 9.6 hours
